From ChEMBL document CHEMBL1158454, “Discovery of a potent and orally active hedgehog pathway antagonist (IPI-926)” (J Med Chem, 2009)

Experiments:
in vitro = conditions: human
Description: Metabolic stability in human liver microsomes assessed as half life at 500 nM

[1] = Inhibition of HedgeHog pathway in mouse C3H10T1/2 cells assessed as inhibition of 20-(S)-hydroxysterol/22-(S)-hydroxysterol-induced osteoblastic differentiation after 72 hrs by alkaline phosphatase assay; conditions: C3H 10T1/2, 72 h

Structure (SMILES): CC1=C2C[C@H]3[C@@H](CC[C@@H]4C[C@@H](NS(C)(=O)=O)CC[C@@]43C)[C@@H]2CC[C@@]2(C1)O[C@@H]1C[C@H](C)CN[C@H]1[C@H]2C
- half-life at 0.5 µM (in vitro; microsomes): 30 min
- EC50 [1]: 90 nM

Structure (SMILES): CC1=C2C[C@H]3[C@@H](CC[C@@H]4CN(C)C(=O)CC[C@@]43C)[C@@H]2CC[C@@]2(C1)O[C@@H]1C[C@H](C)CN[C@H]1[C@H]2C
- half-life at 0.5 µM (in vitro; microsomes): 46 min
- EC50 [1]: 40 nM

Structure (SMILES): CC1=C2C[C@H]3[C@@H](CC[C@@H]4C[C@H](N)CC[C@@]43C)[C@@H]2CC[C@@]2(C1)O[C@@H]1C[C@H](C)CN[C@H]1[C@H]2C
- EC50 [1]: > 1000 nM

Structure (SMILES): CC1=C2C[C@H]3[C@@H](CC[C@@H]4C[C@@H](N)CC[C@@]43C)[C@@H]2CC[C@@]2(C1)O[C@@H]1C[C@H](C)CN[C@H]1[C@H]2C
- EC50 [1]: > 1000 nM

Structure (SMILES): CC1=C2C[C@H]3[C@@H](CC[C@@H]4C/C(=N/O)CC[C@@]43C)[C@@H]2CC[C@@]2(C1)O[C@@H]1C[C@H](C)CN[C@H]1[C@H]2C
- half-life at 0.5 µM (in vitro; microsomes): 45 min
- EC50 [1]: 15 nM

Structure (SMILES): CC1=C2C[C@H]3[C@@H](CC[C@@H]4CC(=O)CC[C@@]43C)[C@@H]2CC[C@@]2(C1)O[C@@H]1C[C@H](C)CN[C@H]1[C@H]2C
- half-life at 0.5 µM (in vitro; microsomes): 70 min
- EC50 [1]: 13 nM

Structure (SMILES): CO/N=C1\CC[C@@]2(C)[C@H](CC[C@H]3[C@@H]4CC[C@@]5(CC(C)=C4C[C@@H]32)O[C@@H]2C[C@H](C)CN[C@H]2[C@H]5C)C1
- half-life at 0.5 µM (in vitro; liver microsomes): 55 min
- EC50 [1]: 160 nM

Structure (SMILES): CC(=O)N[C@H]1CC[C@@]2(C)[C@H](CC[C@H]3[C@@H]4CC[C@@]5(CC(C)=C4C[C@@H]32)O[C@@H]2C[C@H](C)CN[C@H]2[C@H]5C)C1
- half-life at 0.5 µM (in vitro; microsomes): 60 min
- EC50 [1]: 300 nM

Structure (SMILES): CC1=C2C[C@H]3[C@@H](CC[C@@H]4Cc5nc(C)sc5C[C@@]43C)[C@@H]2CC[C@@]2(C1)O[C@@H]1C[C@H](C)CN[C@H]1[C@H]2C
- half-life at 0.5 µM (in vitro; liver microsomes): 100 min
- EC50 [1]: 270 nM

Structure (SMILES): CC1=C2C[C@H]3[C@@H](CC[C@@H]4Cc5nn(S(C)(=O)=O)cc5C[C@@]43C)[C@@H]2CC[C@@]2(C1)O[C@@H]1C[C@H](C)CN[C@H]1[C@H]2C
- half-life at 0.5 µM (in vitro; liver microsomes): 180 min
- EC50 [1]: 140 nM

Structure (SMILES): CC1=C2C[C@H]3[C@@H](CC[C@@H]4c5c[nH]nc5CC[C@@]43C)[C@@H]2CC[C@@]2(C1)O[C@@H]1C[C@H](C)CN[C@H]1[C@H]2C
- half-life at 0.5 µM (in vitro; microsomes): 27 min
- EC50 [1]: 220 nM

Structure (SMILES): CC(=O)N[C@@H]1CC[C@@]2(C)[C@H](CC[C@H]3[C@@H]4CC[C@@]5(CC(C)=C4C[C@@H]32)O[C@@H]2C[C@H](C)CN[C@H]2[C@H]5C)C1
- half-life at 0.5 µM (in vitro; microsomes): 65 min
- EC50 [1]: 17 nM

Structure (SMILES): CC1=C2C[C@H]3[C@@H](CC[C@@H]4Cc5nonc5C[C@@]43C)[C@@H]2CC[C@@]2(C1)O[C@@H]1C[C@H](C)CN[C@H]1[C@H]2C
- half-life at 0.5 µM (in vitro; liver microsomes): 8 min
- EC50 [1]: 230 nM

Structure (SMILES): CO[C@H]1CC[C@@]2(C)[C@H](CC[C@H]3[C@@H]4CC[C@@]5(CC(C)=C4C[C@@H]32)O[C@@H]2C[C@H](C)CN[C@H]2[C@H]5C)C1
- half-life at 0.5 µM (in vitro; microsomes): > 200 min
- EC50 [1]: 490 nM
